Holding throughout (assay): growth of human tumour cells (NCI), 48 h
Experiment [1] has as its system 786-0.
The subject of experiment [2] is CAKI-1.
Experiment [3] relates to EKVX.
Experiment [4] deals with HT-29.
Experiment [5] concerns M14.
Experiment [6] has as its system MCF7.
Experiment [7] has as its system MDA-MB-435.
The subject of experiment [8] is MDA-N.
The test system of experiment [9] is NCI-H23.
Experiment [10] relates to NCI-H522.
In experiment [11] the test system is NCI/ADR-RES.
For experiment [12], the system named is OVCAR-8.
The test system of experiment [13] is PC-3.
Experiment [14] concerns SF-268.
The subject of experiment [15] is SK-MEL-2.
Experiment [16] concerns SK-OV-3.
In experiment [17] the test system is SN12C.
In experiment [18] the test system is SR.
Experiment [19] deals with SW-620.
In experiment [20] the test system is UACC-62.

10 compounds from ChEMBL document CHEMBL1201862, “PubChem BioAssay data set” (2004) can be followed below.

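Five concentrations, 48 hours, 96-well plates. At the GI50, growth is halved.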 Calls of active or inactive are those of the source. No stated cut-off is given here; in the data, active = GI50 up to about 1.1 µM and inactive = higher.

As to `CCN(CC)C(=O)Cn1c(C)cc2ccccc21`, the GI50 in experiment [1], in experiment [2], in experiment [3], in experiment [4], in experiment [5] and in experiment [6] was > 100 µM (inactive) throughout. In addition, the GI50 in experiment [7], in [8], in experiment [9], in experiment [10], in experiment [11] and in experiment [12] was > 100 µM (inactive) throughout. For the same compound, the GI50 in experiment [13], in experiment [14], in experiment [15], in [16], in [17] and in experiment [18] was > 100 µM (inactive) throughout. The GI50 in experiment [19] and in experiment [20] was > 100 µM (inactive) in each case.
On to `COc1cc2c(cc1OCCCCCN1C(=O)c3cccc4cccc(c34)C1=O)N=C[C@@H]1CCCN1C2=O`, for which the GI50 in experiment [1] is 0.249 µM (active); in [2], 0.208 µM (active); in experiment [3] it was 0.492 µM (active); in [4] it was 0.286 µM (active); in [5], 0.24 µM (active); in experiment [6], 0.181 µM (active). Also, the GI50 in experiment [7] is 0.167 µM (active); in [8], 0.207 µM (active); in experiment [9], 0.222 µM (active); in experiment [10] it was 0.0336 µM (active); in [11] it was 0.421 µM (active); in experiment [12] it was 0.281 µM (active). Further, the GI50 is 0.282 µM (active) in experiment [13]; 0.207 µM (active) in experiment [14]; 0.223 µM (active) in [15]; 0.514 µM (active) in experiment [16]; 0.336 µM (active) in [17]; < 0.01 µM (active) in experiment [18]. The values for the GI50 in experiment [19] and in experiment [20] were 0.278 µM (active) and 0.13 µM (active), respectively.
Take `CSc1c(CC(=O)Nc2ccc(Cl)cc2)n(Cc2ccccc2)c2ccccc12`: the GI50 was 11.3 µM (inactive) in [1]; 22.8 µM (inactive) in [2]; 12.1 µM (inactive) in experiment [3]; 39.4 µM (inactive) in experiment [4]; 58.2 µM (inactive) in experiment [5]; 18.6 µM (inactive) in experiment [6]. In addition, the GI50 in experiment [7] was 49.3 µM (inactive); in [8], 76.4 µM (inactive); in [9], 29.1 µM (inactive); in experiment [10] it was 18.1 µM (inactive); in experiment [11] it was 19.4 µM (inactive); in [12], 12.3 µM (inactive). Moreover, the GI50 in experiment [13] is 11 µM (inactive); in [14] it was 12.9 µM (inactive); in experiment [15], 14.2 µM (inactive); in [16] it was 41.4 µM (inactive); in experiment [17] it was 32 µM (inactive); in experiment [18], 23 µM (inactive). Besides, the GI50 was > 100 µM (inactive) in experiment [19] and 18.1 µM (inactive) in experiment [20].
On to `COc1cc(CC2C(=O)OCC2Cc2ccc(OC)c(OC)c2)ccc1O` (stereo not drawn), for which the GI50 in [1] is > 100 µM (inactive); in experiment [2], > 100 µM (inactive); in experiment [3], > 27.8 µM (inactive); in experiment [4], > 100 µM (inactive); in [5], > 100 µM (inactive); in [6], > 100 µM (inactive). Moreover, the GI50 is > 100 µM (inactive) in experiment [7]; > 100 µM (inactive) in experiment [8]; 10.9 µM (inactive) in experiment [9]; > 100 µM (inactive) in experiment [10]; 43.6 µM (inactive) in [11]; > 100 µM (inactive) in experiment [12]. In addition, the GI50 in [13] is 99.1 µM (inactive); in experiment [14] it was > 100 µM (inactive); in experiment [15], > 100 µM (inactive); in experiment [16] it was > 100 µM (inactive); in [17] it was > 100 µM (inactive); in experiment [18] it was > 100 µM (inactive). Moreover, the GI50 in [19] and in experiment [20] was > 100 µM (inactive) in each case.
With `COc1cccc(Nc2nc(N)nc(N)c2N=O)c1`, the GI50 is 19 µM (inactive) in [1]; 11.3 µM (inactive) in [2]; 19.4 µM (inactive) in experiment [3]; 21.8 µM (inactive) in [4]; 30.8 µM (inactive) in experiment [5]; 3.8 µM (inactive) in experiment [6]. The GI50 is 16.9 µM (inactive) in experiment [7]; 30.8 µM (inactive) in experiment [8]; 15.3 µM (inactive) in experiment [9]; 8.65 µM (inactive) in experiment [10]; 17.1 µM (inactive) in [11]; 16.1 µM (inactive) in experiment [12]. For the same compound, the GI50 in [13] was 10.2 µM (inactive); in experiment [14] it was 14.7 µM (inactive); in experiment [15] it was 31 µM (inactive); in [16] it was 29.2 µM (inactive); in experiment [17] it was 17.8 µM (inactive); in [18] it was 18.5 µM (inactive). Besides, the figures for the GI50 in [19] and in experiment [20] were 31.3 µM (inactive) and 15.5 µM (inactive), respectively.
As for `COCc1nc2c(OC)c(-c3nc4ccc(N5CCN(C)CC5)cc4[nH]3)cc(OC)c2[nH]1`, the GI50 in experiment [1] was 40.1 µM (inactive); in experiment [2] it was 41.7 µM (inactive); in experiment [3], 99.8 µM (inactive); in experiment [4], 31.5 µM (inactive); in experiment [5] it was 17.4 µM (inactive); in experiment [6], 35.6 µM (inactive). Moreover, the GI50 in [7] is 33 µM (inactive); in [8], 33.1 µM (inactive); in experiment [9], 83.4 µM (inactive); in [10] it was 31.1 µM (inactive); in experiment [11], > 100 µM (inactive); in experiment [12] it was 60.7 µM (inactive). In addition, the GI50 was 42.9 µM (inactive) in [13]; > 100 µM (inactive) in experiment [14]; 27.9 µM (inactive) in experiment [15]; 52.1 µM (inactive) in experiment [16]; 43.9 µM (inactive) in experiment [17]; 19.7 µM (inactive) in experiment [18]. The GI50 is 40.6 µM (inactive) in [19] and 80.7 µM (inactive) in [20].
Consider `CC12C=CC(=O)C=C1CCC1C3CCC(O)(C(=O)CO)C3(C)CC(O)C12F` (stereo not drawn), for which the GI50 is > 100 µM (inactive) in experiment [1]; > 100 µM (inactive) in experiment [2]; 43.5 µM (inactive) in experiment [3]; > 100 µM (inactive) in experiment [4]; > 100 µM (inactive) in [5]; > 100 µM (inactive) in experiment [6]. Further, the GI50 in experiment [7], in experiment [8], in experiment [9], in experiment [10], in experiment [11] and in experiment [12] was > 100 µM (inactive) throughout. In addition, the GI50 in experiment [13] is > 100 µM (inactive); in experiment [14], > 100 µM (inactive); in experiment [15] it was > 100 µM (inactive); in experiment [16] it was > 4.88 µM (inactive); in [17], > 100 µM (inactive); in experiment [18] it was > 100 µM (inactive). Also, the GI50 in [19] and in experiment [20] was > 100 µM (inactive) throughout.
Consider `N#Cc1c(C#N)c(-c2ccccc2)n(-c2ccccc2)c1N`, for which the GI50 was 82.6 µM (inactive) in experiment [1]; > 100 µM (inactive) in experiment [2]; 73.8 µM (inactive) in [3]; > 100 µM (inactive) in [4]; > 100 µM (inactive) in experiment [5]; > 100 µM (inactive) in experiment [6]. Moreover, the GI50 was > 100 µM (inactive) in [7]; > 100 µM (inactive) in [8]; 80.7 µM (inactive) in experiment [9]; 41.9 µM (inactive) in experiment [10]; > 100 µM (inactive) in experiment [11]; > 100 µM (inactive) in experiment [12]. Further, the GI50 is > 100 µM (inactive) in experiment [13]; 88.3 µM (inactive) in [14]; 99.1 µM (inactive) in experiment [15]; 83.6 µM (inactive) in experiment [16]; > 100 µM (inactive) in [17]; 73.8 µM (inactive) in experiment [18]. For the same compound, the GI50 in experiment [19] was > 100 µM (inactive); in experiment [20], 69.5 µM (inactive).
Consider `Cc1nnc2n1-c1ccccc1C(=S)N1CSCC21` (stereo not drawn), for which the GI50 in experiment [1], in experiment [2], in experiment [3], in experiment [4], in experiment [5] and in experiment [6] was > 100 µM (inactive) each time. For the same compound, the GI50 in [7], in experiment [8], in experiment [10], in experiment [11], in experiment [12] and in experiment [13] was > 100 µM (inactive) each time. Besides, the GI50 in [14], in [15], in [16], in [17], in experiment [18] and in experiment [19] was > 100 µM (inactive) in each case. The GI50 in experiment [20] is > 100 µM (inactive).
As to `COc1ccc(/C=C2\N=C(c3ccccc3)N(NC3=NC(=O)CC(=O)N3)C2=O)cc1`, the GI50 in experiment [1] is > 100 µM (inactive); in [2], > 100 µM (inactive); in [4], > 100 µM (inactive); in experiment [5], > 100 µM (inactive); in experiment [6], 20.4 µM (inactive); in experiment [7] it was > 100 µM (inactive). Also, the GI50 in experiment [8], in experiment [9], in experiment [10], in experiment [11], in experiment [12] and in experiment [13] was > 100 µM (inactive) throughout. Moreover, the GI50 in experiment [14], in experiment [15], in experiment [16], in experiment [17], in experiment [18] and in experiment [19] was > 100 µM (inactive) in each case. Besides, the GI50 in experiment [20] was > 100 µM (inactive).
